Data: ChEMBL document CHEMBL1130502, “Lipopeptide antifungal agents: Amine conjugates of the semi-synthetic pneumocandins L-731,373 and L-733,560” (Bioorg Med Chem Lett, 1997)
In brackets after ≈: the same amount, converted by molar mass.

Legend:
Candida parapsilosis = assay: Tested for in vitro minimum fungicidal concentration (MFC) against C. parapsilosis; 0.25-1; assay type: functional
[1] = Acute toxicity in mice after intravenous administration; settings: mouse, in vivo
Mus musculus [2] = assay: In vivo effective intraperitoneal dose to achieve least 50% survival in a mouse model of disseminated aspergillosis; assay type: functional; settings: ip
Candida albicans [3] = assay: Tested for in vitro minimum fungicidal concentration (MFC) against C. albicans; 0.25-1; assay type: functional
Pichia kudriavzevii = assay: Tested for in vitro minimum fungicidal concentration (MFC) against C. krusei; 2-4; assay type: functional
1,3-beta-glucan synthase = 1,3-beta-glucan synthase (Candida glabrata, UniProt F5BCZ9); assay: Inhibition of 1,3-beta-glucan synthase; set-up: species or system Candida glabrata CBS 138
Mus musculus [4] = species on record: Mus musculus; assay: […] anti-candida activity expressed as ED99.9 in a mouse model of disseminated candidiasis (TOKA); assay type: functional
Nakaseomyces glabratus = assay: Tested for in vitro minimum fungicidal concentration (MFC) against C. glabrata; 1-4; assay type: functional
Mus musculus [5] = species on record: Mus musculus; assay: Percentage of mice with complete eradication of candida in kidneys; assay type: functional, Kidney
Clavispora lusitaniae = assay: Tested for in vitro minimum fungicidal concentration (MFC) against Candida lusitaniae 0.125-1; assay type: functional
Candida tropicalis = assay: Tested for in vitro minimum fungicidal concentration (MFC) against C. tropicalis; 0.25-1; assay type: functional
Cryptococcus neoformans = assay: Tested for in vitro minimum fungicidal concentration (MFC) against C. neoformans; 8-32; assay type: functional
Kluyveromyces marxianus = assay: Tested for in vitro minimum fungicidal concentration (MFC) againstC. pseudotropicalis; 0.25-1; assay type: functional
[6] = test system: Meyerozyma guilliermondii; assay: Tested for in vitro minimum fungicidal concentration (MFC) against Candida guilliermondii 1-16; assay type: functional
Candida albicans [7] = assay: Tested for minimum fungicidal concentration (MFC) against Candida albicans (MY 1055); assay type: functional

Sequence of 1,3-beta-glucan synthase (F5BCZ9 whole entry): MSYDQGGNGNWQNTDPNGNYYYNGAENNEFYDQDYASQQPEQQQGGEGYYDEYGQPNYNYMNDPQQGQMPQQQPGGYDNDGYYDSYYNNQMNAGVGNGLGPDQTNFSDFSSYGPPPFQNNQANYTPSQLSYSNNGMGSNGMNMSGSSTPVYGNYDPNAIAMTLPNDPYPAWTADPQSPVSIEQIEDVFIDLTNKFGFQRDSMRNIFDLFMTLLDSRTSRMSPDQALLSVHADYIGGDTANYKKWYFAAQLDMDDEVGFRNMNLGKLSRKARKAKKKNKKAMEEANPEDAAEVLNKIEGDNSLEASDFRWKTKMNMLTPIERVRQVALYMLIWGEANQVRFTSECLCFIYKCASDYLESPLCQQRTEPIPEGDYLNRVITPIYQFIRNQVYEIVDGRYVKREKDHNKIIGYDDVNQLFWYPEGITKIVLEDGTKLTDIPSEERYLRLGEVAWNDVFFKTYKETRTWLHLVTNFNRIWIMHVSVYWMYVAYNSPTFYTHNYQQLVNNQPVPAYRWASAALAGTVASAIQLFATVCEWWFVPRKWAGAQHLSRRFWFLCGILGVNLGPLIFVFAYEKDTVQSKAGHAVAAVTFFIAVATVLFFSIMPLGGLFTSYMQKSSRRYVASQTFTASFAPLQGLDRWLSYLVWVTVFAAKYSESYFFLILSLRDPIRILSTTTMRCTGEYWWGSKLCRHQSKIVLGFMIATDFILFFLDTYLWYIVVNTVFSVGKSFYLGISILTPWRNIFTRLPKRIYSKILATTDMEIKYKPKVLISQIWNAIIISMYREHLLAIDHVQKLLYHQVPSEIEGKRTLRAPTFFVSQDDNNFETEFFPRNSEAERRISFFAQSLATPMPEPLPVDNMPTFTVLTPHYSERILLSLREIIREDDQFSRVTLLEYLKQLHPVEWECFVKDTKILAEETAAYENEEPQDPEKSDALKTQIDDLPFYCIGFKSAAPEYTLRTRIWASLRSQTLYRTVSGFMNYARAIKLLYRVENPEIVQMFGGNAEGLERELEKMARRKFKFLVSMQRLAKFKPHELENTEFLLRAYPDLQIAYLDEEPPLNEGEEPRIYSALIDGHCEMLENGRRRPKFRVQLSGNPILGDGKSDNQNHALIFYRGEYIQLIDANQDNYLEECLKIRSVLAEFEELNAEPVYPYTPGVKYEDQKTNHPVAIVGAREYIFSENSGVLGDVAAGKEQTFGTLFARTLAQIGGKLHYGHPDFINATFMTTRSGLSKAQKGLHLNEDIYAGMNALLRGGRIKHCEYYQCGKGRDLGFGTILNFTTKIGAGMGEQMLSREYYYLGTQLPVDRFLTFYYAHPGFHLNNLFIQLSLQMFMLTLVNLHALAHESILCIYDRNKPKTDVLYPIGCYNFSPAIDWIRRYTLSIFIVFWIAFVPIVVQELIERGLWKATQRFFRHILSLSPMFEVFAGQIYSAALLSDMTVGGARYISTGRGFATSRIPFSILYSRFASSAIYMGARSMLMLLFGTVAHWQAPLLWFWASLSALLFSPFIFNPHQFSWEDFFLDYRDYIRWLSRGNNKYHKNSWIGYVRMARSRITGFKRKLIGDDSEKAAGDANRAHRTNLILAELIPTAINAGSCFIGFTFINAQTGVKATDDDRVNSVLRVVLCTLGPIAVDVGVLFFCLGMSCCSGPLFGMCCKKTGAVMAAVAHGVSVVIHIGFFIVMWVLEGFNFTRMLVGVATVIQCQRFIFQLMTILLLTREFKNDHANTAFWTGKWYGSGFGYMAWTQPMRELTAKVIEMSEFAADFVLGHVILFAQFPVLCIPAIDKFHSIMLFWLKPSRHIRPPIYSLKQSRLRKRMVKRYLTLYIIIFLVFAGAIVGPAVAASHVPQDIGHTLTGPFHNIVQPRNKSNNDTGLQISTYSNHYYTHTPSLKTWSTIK

CCC(C)CC(C)CCCCCCCCC(=O)NC1C[C@@H](O)[C@@H](OCCN)NC(=O)C2CN(C[C@@H]2O)C(=O)[C@H]([C@H](O)CCNC(=O)[C@@H](N)CCCN)NC(=O)[C@H]([C@H](O)[C@@H](O)c2ccc(O)cc2)NC(=O)C2C[C@@H](O)CN2C(=O)[C@H]([C@@H](C)O)NC1=O (stereo not given in full)
MFC90 (Candida parapsilosis): 1 µg/mL (≈ 0.827 µM) | Dose [1]: 80 mg/kg | ED50 (Mus musculus [2]): 0.03 mg/kg | MFC90 (Candida albicans [3]): 1 µg/mL (≈ 0.827 µM) | MFC90 (Pichia kudriavzevii): 4 µg/mL (≈ 3.31 µM) | IC50 (1,3-beta-glucan synthase): 1.5 nM | ED99.9 (Mus musculus [4]): 0.09 mg/kg | MFC90 (Nakaseomyces glabratus): 2 µg/mL (≈ 1.65 µM) | Sterilized (Mus musculus [5]): 70% | MFC90 (Clavispora lusitaniae): 0.5 µg/mL (≈ 0.414 µM) | MFC90 (Candida tropicalis): 1 µg/mL (≈ 0.827 µM) | MFC90 (Cryptococcus neoformans): 32 µg/mL (≈ 26.5 µM) | MFC90 (Kluyveromyces marxianus): 1 µg/mL (≈ 0.827 µM) | MFC90 [6]: 8 µg/mL (≈ 6.62 µM) | MFC (Candida albicans [7]): < 0.06 µg/mL
